Experimental data taken from patent publication US20260144875A1, “COMPOSITIONS AND METHODS FOR CROSSLINKING STRUCTURAL PROTEINS” (ADS Therapeutics LLC, priority 2022, published 2026).
Converted amounts (≈) assume the structure as drawn.

Tests used:
Assay type in all cases: physicochemical
[1] = Solubility of RTB in MCT, F6H8 or mixed solvents, HPLC; conditions: 25° C.
Method: Solubility of riboflavin tetrabutyrate (RTB) was tested in medium chain triglycerides (MCT), F6H8, or mixtures of MCT/F6H8 at room temperature, and in F6H8 at 100° C. Solubility was analyzed as in Example 1a.

[2] = Impurities from riboflavin tetrabutyrate in aqueous solution; conditions: PBS
Method: The impurities present in PBS solutions, with or without 10% hydroxy-propyl-beta-cyclodextrin (HP-β-CD) as solubilizer, at varying pH, with riboflavin tetrabutyrate (RTB) was investigated. Using similar sample analysis methods described in Examples 1a-1c, the impurities were determined.

[3] = Impurities from riboflavin tetrabutyrate in organic solvents; conditions: 25° C.; for Impur. 0 hr / Impur. 1 Month / Impur. 14 Days: RTB
Method: The impurities present in MCT, F6H8, or combinations, with riboflavin tetrabutyrate (RTB), at 25° C. was investigated. Using similar sample analysis methods described in Examples 1a-1c, the impurities were determined.

[4] = Sample YA1, HP-β-CD 10%, pH 5.0
[5] = Sample YA2, HP-β-CD 10%, pH 6.0
[6] = Sample YA3, HP-β-CD 10%, pH 7.0
[7] = Sample YA4, without HP-β-CD, pH 5.0
[8] = Sample YA5, without HP-β-CD, pH 6.0
[9] = Sample YA6, without HP-β-CD, pH 7.0
[10] = Sample YB1, 0.2%, MCT 100%, F6H8 0%
[11] = Sample YB2, 0.1%, MCT 70%, F6H8 30%
[12] = Sample YB3, 0.1%, MCT 50%, F6H8 50%

CCCC(=O)OC[C@@H](OC(=O)CCC)[C@@H](OC(=O)CCC)[C@H](Cn1c2nc(=O)[nH]c(=O)c-2nc2cc(C)c(C)cc21)OC(=O)CCC [RTB, (2R,3S,4S)-5-(7,8-dimethyl-2,4-dioxo-3,4-dihydrobenzo[g]pteridin-10(2H)-yl) pentane-1,2,3,4-tetrayl tetrabutyrate]
Solubility ([1]; Sample B2, MCT 100%, F6H8 0%): 3.133 µg/mL (≈ 4.77 µM)
Solubility ([1]; Sample B3, MCT 20%, F6H8 80%): 0.316 µg/mL (≈ 0.481 µM)
Solubility ([1]; Sample B4, MCT 50%, F6H8 50%): 1.124 µg/mL (≈ 1.71 µM)
Solubility ([1]; Sample B5, MCT 70%, F6H8 30%): 1.582 µg/mL (≈ 2.41 µM)
Other Impurities [2, 4]: 2.94%
Riboflavin [2, 4]: 0%
Riboflavin Tetrabutyrate [2, 4]: 96.28%
Other Impurities [2, 5]: 10.65%
Riboflavin [2, 5]: 2.45%
Riboflavin Tetrabutyrate [2, 5]: 87.2%
Other Impurities [2, 6]: 9.39%
Riboflavin [2, 6]: 2.03%
Riboflavin Tetrabutyrate [2, 6]: 88.58%
Other Impurities [2, 7]: 22.54%
Riboflavin [2, 7]: 7.24%
Riboflavin Tetrabutyrate [2, 7]: 70.22%
Other Impurities [2, 8]: 20.58%
Riboflavin [2, 8]: 7.52%
Riboflavin Tetrabutyrate [2, 8]: 71.90%
Other Impurities [2, 9]: 19.8%
Riboflavin [2, 9]: 8.92%
Riboflavin Tetrabutyrate [2, 9]: 71.30%
RTB 0 hr [3, 10]: 98.76%
RTB 1 Month [3, 10]: 98.71%
RTB 14 Days [3, 10]: 98.76%
Impur. 0 hr [3, 10]: 1.16%
Impur. 1 Month [3, 10]: 1.15%
Impur. 14 Days [3, 10]: 1.16%
RTB 0 hr [3, 11]: 98.85%
RTB 1 Month [3, 11]: 99.05%
RTB 14 Days [3, 11]: 98.94%
Impur. 0 hr [3, 11]: 1.14%
Impur. 1 Month [3, 11]: 0.95%
Impur. 14 Days [3, 11]: 1.06%
RTB 0 hr [3, 12]: 98.87%
RTB 1 Month [3, 12]: 98.99%
RTB 14 Days [3, 12]: 98.92%
Impur. 0 hr [3, 12]: 1.13%
Impur. 1 Month [3, 12]: 1.02%
Impur. 14 Days [3, 12]: 1.07%
